Data taken from US8889680B2, “Treatment or prevention of fungal infections with PDK1 inhibitors” (priority 2010, dated 2014).

How the values were obtained:
[1] = system: C. neoformans PKH2-01 and PKH2-02 deletion mutants; test: Disk diffusion assay, C. neoformans mutants; assay type: cell-based, Cryptococcus neoformans; conditions: 30° C.
Description: (§1) Plates were incubated at 30° C. for 3 days prior to photography.
(§2) The antifungal activity of protein kinase inhibitors was determined using the Clinical and Laboratory Science Institute microdilution protocol M-27A2. Biofilm antifungal activity was determined using the protocol of Pierce et al. and is reported as MIC50S (Pierce et al., Nat. Protoc. 3:1494-1500 (2008)). Disk diffusion assays were performed as described previously (Roelants et al., Microbiology 150:3289-304 (2004)).

[2] = system: fluid-phase endocytosis in S. cerevisiae; test: Lucifer yellow (LY) endocytosis assay; assay type: cell-based; conditions: sub-lethal KP-372-1, 1 hour pre-treatment, 1 hour time course
Description: LY uptake assays were performed as described previously (Dulic et al., Methods Enzymol. 194:697-710 (1991)) using LY obtained from Sigma (St. Louis, Mo.). […] Cells were then exposed to LY and aliquots were removed at 15 minute intervals. Endocytosis was stopped by the addition of sodium azide/succinate and the percentage of cells with vacuolar LY staining was determined by fluorescence microscopy.
Pkh kinases are also important for endocytosis in yeast. […] LY binds to the plasma membrane and is transported to the vacuole (yeast lysosomal homolog) in PKH-dependent fashion.

[3] = system: C. albicans clinical reference strain SC5314; test: Adenylate kinase (AK) release assay of yeast cell lysis; assay type: cell-based, Candida albicans; set-up: dose or concentration left out as unconfirmed; conditions: extracellular AK activity relative to DMSO-treated cells
Description: AK assays were performed according to a recently published protocol (Didone et al., Nat. Protocol. 5:1107-14 (2010)) using the 96-well plate version using the Toxi-Light Assay kit (Lonza; Basel, Switzerland). Luminescence was measured using a SpectraMax plate reader (Molecular Devices; Sunnyvale, Calif.). […] To identify PKIs that disrupt yeast cell wall integrity, a four-part screening strategy as outlined in FIG. 1A was designed. The primary screen in the approach detects molecules that cause yeast cells to lyse, a characteristic phenotype of yeast cell wall damage, by use of an assay that detects the release of adenylate kinase (AK) to the growth medium as a reporter of yeast cell lysis. […] Last, to select PKIs specific for the CWI signaling pathway, the set of hits were tested for their ability to block the activation of a transcriptional reporter of the CWI-signaling pathway. To rapidly survey a sample of well-characterized PKIs, the commercially available InhibitorSelect collection, a library of 80 PKIs with diverse mechanistic and structural characteristics, was utilized. C. albicans clinical reference strain SC5314 was screened against the InhibitorSelect library for molecules that caused a release of AK into the growth medium.

C. albicans = test: Antifungal susceptibility (microdilution MIC), C. albicans; assay type: cell-based, Candida albicans
Description: as §2
To identify PKIs that disrupt yeast cell wall integrity, a four-part screening strategy as outlined in FIG. 1A was designed. The primary screen in the approach detects molecules that cause yeast cells to lyse, a characteristic phenotype of yeast cell wall damage, by use of an assay that detects the release of adenylate kinase (AK) to the growth medium as a reporter of yeast cell lysis. Previously it was shown that the AK assay in HTS format can detect as few as 500 lysed yeast cells in a sample of 10^5 cells (Didone et al., Nat. Protocol. 5:1107-14 (2010)). PKIs that cause yeast cells lysis (hits) were then re-confirmed by AK dose-response assays and tested for in vitro antifungal activity against the human fungal pathogen C. albicans using standard microdilution susceptibility testing. Last, to select PKIs specific for the CWI signaling pathway, the set of hits were tested for their ability to block the activation of a transcriptional reporter of the CWI-signaling pathway. […]

normal cells = conditions: cited from earlier work
human protein kinases = conditions: large panel of human protein kinases; cited from earlier work
[4] = system: CWI pathway reporter Rlm1-lacZ; test: β-Galactosidase CWI pathway reporter assay (Rlm1-lacZ); assay type: cell-based; conditions: sub-inhibitory concentrations (1/2 MIC), S. cerevisiae
Description: Bars indicate mean fold change in Miller units of β-galactosidase activity relative to logarithmic phase cells without calcofluor or PKI. Error bars indicate standard deviation of three independent trials performed in triplicate. […] The percentage of cells with PI uptake was determined by fluorescence.
Logarithmic phase S. cerevisiae (BY4741) cells harboring the pRLM1-lacZ plasmid were transferred to a 96-well plate, and treated with Calcofluor white ([…])+/−protein kinase inhibitor at sub-inhibitory concentrations (1/2MIC). The cells were incubated at room temperature for 5 hours and processed for β-galactosidase activity using the ThermoScientific Yeast β-galactosidase kit according to the manufacturer's instructions (Pierce; Rockford, Ill.). β-galactosidase activity was determined by measuring OD420 using a SpectraMax Plate reader (Molecular Devices) and expressed as fold change in Miller units (nmole/mg/min) relative to untreated cells. Each experiment was performed in duplicate with three independent isolates.
The novel, antifungal PKIs identified in the primary screen were evaluated for their ability to block CWI pathway signaling using a reporter construct that contains two copies of the consensus binding site for the CWI-pathway-regulated transcription factor Rlm1 fused to the β-galactosidase gene (Jung et al., Mol. Microbiol. 46:781-9 (2002)). […]

[5] = system: leukemic and glioblastoma cells; conditions: cited from earlier work
Candida spp. = test: Antifungal susceptibility (microdilution MIC), Candida spp.; assay type: cell-based
Description: as §2
(FIG. 3A). […] Since the echinocandin class of cell wall-targeted 1,3-β-glucan synthase inhibitors is not active against C. neoformans, this represents one of the few cell wall-targeted molecules with activity against this important pathogen.

[6] = system: S. cerevisiae pkh and ypk mutants; test: Disk diffusion assay, S. cerevisiae mutants; assay type: cell-based
Description: as §1, §2
Heterozygous diploid yeast mutants lacking one allele of the gene encoding a putative drug target are frequently hypersensitive to the effects of that drug. This is called drug-induced haploinsufficiency. Similarly, if a drug targets the products of two redundant genes, then deletion of one of those genes in a haploid yeast strain will hypersensitize the strain to that drug. […] Pkh1/2 phosphorylates two other AGC protein kinases involved in yeast cell wall integrity, Ypk1&2.

[7] = system: Pkh1/2-dependent phosphorylation of Pil1-GFP; test: Pil1-GFP phosphorylation immunoblot; assay type: cell-based, S. cerevisiae; conditions: sub-inhibitory KP-372-1 (1/2 MIC); cells with endogenous Pkh1/2 and cells over-expressing Pkh2; Western blot
Description: Cells were harvested at the indicated times and analyzed by Pil1-GFP immunoblotting. Pil1-P corresponds to the Pkh1/2-dependent phosphorylated Pil1 species.
Western blot analysis of Pil1-GFP was performed essentially as described (Luo et al., J. Biol. Chem. 283:10433-44 (2008)). Briefly, Pil1-GFP containing cells were harvested and lysed using the SDS-PAGE sample buffer method. Extracts corresponding to equivalent numbers of cells were fractionated by SDS-PAGE electrophoresis on 7% gels, transferred to nitrocellulose and blocked overnight in 50 mM Tris pH 7.5/150 mM NaCl/0.05% (v/v) Tween-20+5% (w/v) non-fat skim milk. Pil1-GFP was detected using mouse anti-GFP (1:10,000 dilution, Clontech Living Colors) (Clontech; Mountain View, Calif.) as primary and goat anti-mouse antibodies conjugated with horse-radish peroxidase (1:10,000) followed by visualization with ECL-Plus reagents (Amersham; Piscataway, N.J.).
S. cerevisiae strains containing a chromosomally-integrated PIL1-GFP allele were transformed with a vector control or a plasmid expressing PKH2 under the control of a galactose-inducible promoter. […] The phosphorylation status of Pil1-GFP was followed over a 3.5 hour time course by Western blot.

## O=C1c2ccccc2-c2nc3nnnn3nc21.O=C1c2ccccc2-c2nn3nnnc3nc21 [KP-372-1]
[1]; C. neoformans PKH2-01 mutant
  sensitivity versus wild type: slightly more sensitive
[1]; C. neoformans PKH2-02 mutant
  sensitivity versus wild type: significantly more sensitive
[2]
  Lucifer yellow uptake (vacuolar localization): uptake is inhibited at early time points
[3]
  Fold increase in AK release: 4 Fold
C. albicans; C. albicans
  antifungal activity (in words): highly active
C. albicans; C. albicans growth assay, Table 1
  MIC: 3 mg/L
Normal cells
  cytotoxicity toward normal cells: without significant cytotoxicity
Human protein kinases
  selectivity for a limited number of human kinases: at least 10 fold
[4]
  Rlm1-lacZ reporter activity induced by Calcofluor white: completely abolished reporter activity
[5]
  activity against leukemic and glioblastoma cells: potent activity
Candida spp.; Candida spp., FIG. 7 legend
  MIC: 3 to 25 mg/L
Candida spp.; other Candida spp. compared with C. albicans and C. glabrata
  antifungal activity (in words): less so
[6]; S. cerevisiae pkh2D mutant, compared with wild type or pkh1D
  zone of inhibition versus wild type: larger zone of inhibition
[6]; S. cerevisiae ypk1D and ypk2D mutants
  sensitivity versus wild type: as sensitive to KP-372-1 as wild type
[7]
  phosphorylation of Pil1-GFP: rapidly blocked
